PMC10250618, “Synthesis, structure-activity relationships and biological evaluation of benzimidazole derived sulfonylurea analogues as a new class of antagonists of P2Y1 receptor” (Frontiers in Pharmacology, 2023)
Read-outs that look alike come from different tables or passages of the source.

Legend:
[1] = molecular target: T1, t-P2Y1 (Meleagris gallopavo, UniProt P49652); experiment: Calcium mobilization assay, t-P2Y1 transfected 1321N1 astrocytoma cells; format: cell-based; conditions: for IC50: Ca2+ mobilization inhibition, transfected 1321N1 cells, read-out: IC50 ± SEM t-P2Y1; for IC50 / inhibition at 100 µM: 100 μM ADP; for inhibition at 100 µM: 1321-N1, final conc of 100 μM
T1 construct: host or cells: human 1321N1 astrocytoma cells, stably transfected
Experimental: (§1) Dr. Gary A. Weisman provided human-1321N1 astrocytoma cells that had been transfected by the tP2Y1R, hP2Y2R, hP2Y4R, and rP2Y6R and untransfected 1321N1 astrocytoma cells (University of Missouri Mo., Bond Life Science Center). The DMEM Dulbecco’s Modified Eagle -Medium (Gibco) was added in flasks to cultivate the cell line. 10% of the Fetal bovine serum was also added to the media together with 500 μg/mL of Geneticin (G418) and 1% of the Pen/Strep. The cells in T-75 flask were then cultured and incubated in a CO2 incubator which was maintained at (5%) and 37°C temperature until 90% of the cells were confluent. Throughout the experiment, cells were periodically checked for the confluency and strictly watched for the microbial contamination.
(§2) The FLUOstar Galaxy (BMG LABTECH GmbH, Ortenberg, Germany) microplate reader with two injectors was used to measure the Ca^2+ fluorescence of synthetic compounds. For this assay, 1321N1 transfected cells (t-P2Y1, h-P2Y2, h-P2Y4, and r-P2Y6) were cultured in T-75 flask. When cells reached the confluency of 80%–90%, they were washed with PBS and then Trypsin was added. After trypsinization for 3 min, 20,000 cells/well were allowed to seed in a black wall and 96 well clear bottom plate which was coated with Poly-D-Lysine and allowed to incubate for 24 h in 37°C, 5% CO2 incubator. After incubation, 200 μL culture media was changed with 100 μL HBSS containing Fura-2 AM which is calcium chelating dye and allowed the plate to incubate for 45 min in dark at temp of 37°C in incubator which is maintained with carbon dioxide (5% CO2). After incubation for 45 min, synthesized molecules were added to HBSS washed cells in each well of 96 well plate and re-incubated for 30 min at 37°C. In next step, injection of the endogenous ligand such as ADP through the injector was followed by excitation and emission measurements of Fura-2 AM at 380/520 nm and 340/520. Final volume of the assay per well 200 μL. IC50 values were computed for the compounds displaying more than 50% of activity using Prism 5.0 software (Graph Pad., Inc., San Diego. California, United States) by using analysis i.e., nonlinear regression ([Kassack et al., 2002]; [Ullmann et al., 2005]).

[2] = molecular target: T2, h-P2Y2 (Homo sapiens, UniProt P41231); experiment: Calcium mobilization assay, h-P2Y2 transfected 1321N1 astrocytoma cells; format: cell-based; conditions: for inhibition at 100 µM: 1321-N1, final conc of 100 μM
T2 construct: host or cells: human 1321N1 astrocytoma cells, stably transfected
Experimental: as §1, §2

[3] = molecular target: T3, h-P2Y4 (Homo sapiens, UniProt P51582); experiment: Calcium mobilization assay, h-P2Y4 transfected 1321N1 astrocytoma cells; format: cell-based; conditions: for inhibition at 100 µM: 1321-N1, final conc of 100 μM, read-out: % Inhibition h-P2Y4
T3 construct: host or cells: human 1321N1 astrocytoma cells, stably transfected
Experimental: as §1, §2

[4] = molecular target: T4, r-P2Y6 (Rattus norvegicus, UniProt Q63371); experiment: Calcium mobilization assay, r-P2Y6 transfected 1321N1 astrocytoma cells; format: cell-based; conditions: 100 μM of UDP; for IC50: Ca2+ mobilization inhibition, transfected 1321N1 cells, read-out: IC50 ± SEM r-P2Y6; for inhibition at 100 µM: 1321-N1, final conc of 100 μM
T4 construct: host or cells: human 1321N1 astrocytoma cells, stably transfected
Experimental: as §1, §2

[5] = MTT assay, non-transfected 1321N1 astrocytoma cells; format: cell-based, human; conditions: human, non-transfected 1321N1 astrocytoma cells; at 50 µM; non-transfected astrocytoma 1321N1 cells; triplicate; read-out: H-1321N1 Cell Line (%cytotoxicity ±SEM)
Experimental: A 96-well plate was used to plate 20,000 human 1321N1 astrocytoma cells and allowed for incubation for 24 h at temp of 37°C in CO2 (5%) incubator. Next to this, the prepared culture media was changed to media which was free from FBS, the test compounds were added and the incubation process was repeated. After incubation of 24 h, the serum free media from the wells was discarded, and 100 μL of the reagent i.e., MTT reagent was pipetted. Plate was then additionally incubated at 37°C for 4 h. Utilizing a microplate reader, absorbance was determined at 570 nm and 630 nm for calculation of cell viability (FLUOstarOmega Microplate Reader-BMG LABTECH GmbH, Ortenberg, Germany) ([Sauer et al., 2009]).

[6] = MTT assay, HEK-293; format: cell-based; conditions: human, HEK-293 cells; at 50 µM; triplicate; read-out: HEK-293 Cell Line (%cytotoxicity ±SEM)
[7] = MTT assay, HeLa; format: cell-based; conditions: human, HeLa cells; at 50 µM; triplicate; read-out: HeLa Cell Line (%cytotoxicity ±SEM)
[8] = Ca2+ mobilization inhibition, transfected 1321N1 cells, 500 μM ATP, read-out: IC50 ± SEM h-P2Y2

T1 sequence (P49652 whole entry): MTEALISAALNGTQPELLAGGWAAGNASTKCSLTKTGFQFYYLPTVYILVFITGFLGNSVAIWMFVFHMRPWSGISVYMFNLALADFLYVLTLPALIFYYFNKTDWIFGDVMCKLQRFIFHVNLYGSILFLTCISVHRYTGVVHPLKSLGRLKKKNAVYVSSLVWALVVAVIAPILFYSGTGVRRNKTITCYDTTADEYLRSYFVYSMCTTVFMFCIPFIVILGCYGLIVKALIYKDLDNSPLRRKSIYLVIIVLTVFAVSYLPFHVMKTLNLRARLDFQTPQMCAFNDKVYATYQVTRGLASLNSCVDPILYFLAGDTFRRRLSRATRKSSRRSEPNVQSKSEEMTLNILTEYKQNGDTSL
T2 sequence (P41231 whole entry): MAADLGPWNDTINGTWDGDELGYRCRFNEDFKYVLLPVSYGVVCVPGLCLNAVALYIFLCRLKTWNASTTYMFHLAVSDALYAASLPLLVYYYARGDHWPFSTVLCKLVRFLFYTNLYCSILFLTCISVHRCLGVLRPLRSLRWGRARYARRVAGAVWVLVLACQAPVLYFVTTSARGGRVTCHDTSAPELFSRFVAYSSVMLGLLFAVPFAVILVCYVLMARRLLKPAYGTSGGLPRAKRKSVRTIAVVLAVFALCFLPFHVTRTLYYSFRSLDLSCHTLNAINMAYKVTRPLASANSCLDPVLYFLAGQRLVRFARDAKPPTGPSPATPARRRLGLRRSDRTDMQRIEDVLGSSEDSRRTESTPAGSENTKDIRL
T4 sequence (Q63371 whole entry): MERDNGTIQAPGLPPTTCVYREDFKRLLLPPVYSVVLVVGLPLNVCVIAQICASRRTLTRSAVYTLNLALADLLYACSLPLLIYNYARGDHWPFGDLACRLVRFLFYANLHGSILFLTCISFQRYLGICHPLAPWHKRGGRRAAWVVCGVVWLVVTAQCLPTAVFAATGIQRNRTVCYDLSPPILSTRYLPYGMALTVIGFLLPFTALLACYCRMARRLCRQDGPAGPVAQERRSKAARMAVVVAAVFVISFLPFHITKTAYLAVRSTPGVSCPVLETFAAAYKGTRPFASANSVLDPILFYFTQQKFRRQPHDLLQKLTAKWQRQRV
T3 sequence (P51582 whole entry): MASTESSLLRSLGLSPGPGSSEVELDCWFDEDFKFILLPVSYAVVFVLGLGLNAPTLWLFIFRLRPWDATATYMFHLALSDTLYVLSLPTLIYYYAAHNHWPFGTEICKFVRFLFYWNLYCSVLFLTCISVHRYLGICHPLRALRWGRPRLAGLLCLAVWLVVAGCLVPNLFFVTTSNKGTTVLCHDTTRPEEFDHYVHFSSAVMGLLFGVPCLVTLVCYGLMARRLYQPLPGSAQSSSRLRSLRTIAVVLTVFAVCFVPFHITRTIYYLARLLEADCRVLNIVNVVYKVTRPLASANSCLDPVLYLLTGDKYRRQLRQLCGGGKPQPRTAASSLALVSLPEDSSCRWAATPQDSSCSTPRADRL

SMILES | IC50 [1] [µM] | inhibition at 100 µM ([2]; 500 μM ATP) [%] | inhibition at 100 µM ([3]; 500 μM UTP) [%] | IC50 [4] [µM] | cytotoxicity at 24 h, 50 µM [5] [%] | cytotoxicity at 24 h, 50 µM [6] [%] | cytotoxicity at 24 h, 50 µM [7] [%] | melting point [°C] | inhibition at 100 µM [4] [%] | inhibition at 100 µM [1] [%] | IC50 [2, 8] [µM] | IC50 [2] [µM] | IC50 [3] [µM] | decreased potency relatively to the derivative 1h ([1]; P2Y1) | IC50 ([3]; Ca2+ mobilization inhibition, transfected 1321N1 cells, 500 μM UTP, read-out: IC50 ± SEM h-P2Y4) [µM]
O=C(NS(=O)(=O)c1ccc([N+](=O)[O-])cc1)n1c(Cl)nc2ccccc21 [1t, 2-Chloro-N-((4-nitrophenyl)sulfonyl)-1H-benzo [d]imidazole-1-carboxamide] | 6.04 ± 1.03 | 42 | 26 | 12.4 ± 1.1 | 27.6 ± 0.4 | 21.4 ± 1.1 | 20.3 ± 0.4 | 166 to 168 |  |  |  |  |  |  | 
Cc1ccc(S(=O)(=O)NC(=O)n2c(N)nc3cc(Cl)ccc32)cc1 [1x, 2-Amino-5-chloro-N-tosyl-1H-benzo [d]imidazole-1-carboxamide] | 10 ± 0.12 | 38 | 29 |  | 12.6 ± 0.5 | 32.1 ± 0.7 | 29.8 ± 1.5 | 188 to 190 | 41 |  |  |  |  |  | 
Nc1nc2cc([N+](=O)[O-])ccc2n1C(=O)NS(=O)(=O)c1cc(Cl)cc(Cl)c1O [1a, 2-Amino-N-((3,5-dichloro-2-hydroxyphenyl)sulfonyl)-5-nitro-1H-benzo [d]imidazole-1-carboxamide] | 0.37 ± 0.02 | 44 | 41 | 0.66 ± 0.04 | 27.4 ± 0.5 | 13.3 ± 0.1 | 22.2 ± 1.1 | 107 to 110 |  |  |  |  |  |  | 
O=C(NS(=O)(=O)c1ccc([N+](=O)[O-])cc1)n1c(-c2ccccc2)nc2ccccc21 [1o, N-((4-nitrophenyl)sulfonyl)-2-phenyl-1H-benzo [d]imidazole-1-carboxamide] |  |  | 46 |  | 24.3 ± 0.8 | 27.9 ± 0.8 | 24.3 ± 0.4 | 162 to 164 | 32 | 46 | 18.2 ± 0.77 |  |  |  | 
COc1nc2ccccc2n1C(=O)NS(=O)(=O)c1ccc(Cl)cc1 [1v, N-((4-chlorophenyl)sulfonyl)-2-methoxy-1H-benzo [d]imidazole-1-carboxamide] |  | 19 | 23 |  | 19.7 ± 0.1 | 12.2 ± 0.7 | 24.1 ± 0.3 | 152 to 154 | 19 | 42 |  |  |  |  | 
Nc1c(S(=O)(=O)O)cc(Nc2ccc(Nc3nc(Cl)nc(Nc4cccc(S(=O)(=O)O)c4)n3)c(S(=O)(=O)O)c2)c2c1C(=O)c1ccccc1C2=O [Reactive Blue 2, reference compound] |  |  |  | 2.8 ± 0.11 |  |  |  |  |  |  |  | 0.57 ± 0.02 | 8.4 ± 1.2 |  | 
O=C(NS(=O)(=O)c1ccc(-c2ccccc2)cc1)n1c(-c2ccccc2)nc2ccccc21 [1l, N-([1.1′-biphenyl]-4-ylsulfonyl)-2-phenyl-1H-benzo [d]imidazole-1-carboxamide] |  | 34 | 22 |  | 47.2 ± 0.4 | 21.3 ± 0.6 | 28.3 ± 1.2 | 133 to 135 | 43 | 27 |  |  |  |  | 
Nc1nc2ccccc2n1C(=O)NS(=O)(=O)c1ccc(-c2ccccc2)cc1 [1y, N-([1.1′-biphenyl]-4-ylsulfonyl)-2-amino-1H-benzo [d]imidazole-1-carboxamide] |  | 20 | 18 |  | 43.1 ± 0.8 | 39.7 ± 0.2 | 32.6 ± 0.3 | 176 to 178 | 23 | 12 |  |  |  |  | 
Nc1nc2ccccc2n1C(=O)NS(=O)(=O)c1ccc(Cl)cc1 [1f, 2-Amino-N-((4-chlorophenyl)sulfonyl)-1H-benzo [d]imidazole-1-carboxamide] | 0.94 ± 0.01 |  | 47 | 9.3 ± 1.12 | 23.6 ± 0.8 | 21.2 ± 0.7 | 16.4 ± 0.2 | 110 to 112 |  |  | 8.41 ± 0.07 |  |  | about five | 
O=C(NS(=O)(=O)c1ccccc1)n1c(-c2ccccc2)nc2ccccc21 [1m, 2-Phenyl-N-(phenylsulfonyl)-1H-benzo [d]imidazole-1-carboxamide] |  | 37 | 16 |  | 37.9 ± 0.7 | 33.3 ± 0.3 | 39.4 ± 1.3 | 154 to 156 | 21 | 29 |  |  |  |  | 
COc1ccc(S(=O)(=O)NC(=O)n2c(OC)nc3ccccc32)cc1 [1u, 2-Methoxy-N-((4-methoxyphenyl)sulfonyl)-1H-benzo [d]imidazole-1-carboxamide] |  | 10 | 30 |  | 25.5 ± 0.3 | 32.2 ± 0.9 | 21.7 ± 0.6 | 177 to 179 | 18 | 31 |  |  |  |  | 
Nc1nc2cc(Cl)ccc2n1C(=O)NS(=O)(=O)c1ccc([N+](=O)[O-])cc1 [1k, 2-Amino-5-chloro-N-((4-nitrophenyl)sulfonyl)-1H-benzo [d]imidazole-1-carboxamide] | 12.4 ± 1.03 |  |  | 8.49 ± 1.23 | 41.7 ± 0.2 | 27.2 ± 0.2 | 21.7 ± 0.9 | 183 to 184 |  |  | 11.1 ± 0.94 |  |  |  | 16.6 ± 1.12
